Measured values taken from paper PMC5746060, “General and Modular Strategy for Designing Potent, Selective, and Pharmacologically Compliant Inhibitors of Rhomboid Proteases” (Cell Chemical Biology, 2017).
pIC50: −log10 of the molar value. Non-standard residues stand in square brackets, D forms with d. Residues, ends and D or L forms follow the SMILES beside them. ξ: configuration not given here. *: point of attachment. X3 = C[C@H](N*)C(=O)NS(C)(=O)=O; X4 = C[C@H](N*)C(=O)c1nccs1; boroAla = C[C@H](N*)B(O)O; ξA = CC(N)C(=O)O; CF3 = FC(F)(F)*; CH2Cl = ClC*

Molecular target: T1, Escherichia coli rhomboid GlpG (Escherichia coli, UniProt P09391)
T1 construct: made in house; host or cells: E. coli C41(DE3)
Assay: in vitro GlpG inhibition assay with fluorogenic transmembrane peptide substrate (apparent IC50)
Format: biochemical
Conditions: for pIC50: 1 hr preincubation, 10 μM fluorogenic substrate KSp35, 0.05% (w/v) DDM; for fold decrease in potency compared with the parent compound 9: N-terminal truncation series
Text: To gain insight into these preferences and their possible interactions, we have generated tetra- and pentapeptidyl chloromethylketones (CMK or cmk henceforth) harboring amino acids preferred in positions P5 to P1 by the Escherichia coli rhomboid GlpG (GlpG henceforth), using the sequence background of the Providencia TatA ([Stevenson et al., 2007]), represented by the parent compound Ac-IATA-cmk. We measured the inhibitory properties of this series of compounds using a newly developed in vitro assay employing a fluorogenic transmembrane peptide substrate ([Ticha et al., 2017]) that faithfully represents a native rhomboid substrate.
Figure 1 The Potency of Substrate-Derived Inhibitors Can be Improved by Modifying the Amino acid Sequence of the P5 to P1 Region (A) The parent inhibitor Ac-IATA-cmk was modified by introducing strongly preferred amino acids ([Zoll et al., 2014]) into the P4, P3, P2, and P5 positions to yield the listed compounds. Their apparent IC50 values were measured with 1 hr preincubation using 10 μM fluorogenic substrate KSp35 and 0.05% (w/v) DDM. The reported values are best-fit means with SD representative of 2–3 measurements. (B) The sequence-optimized peptidyl chloromethylketones were soaked into the native crystals of GlpG and structures of the complexes were solved by X-ray diffraction (for statistics, see Table S1). […] Note that in the Ac-RVRHA-cmk structure (right), the side chain of the Arg residue in the P5 position of the inhibitor has not been modeled due to poor or missing electron density peaks. (C) Interactions of RVRHA-cmk with GlpG were analyzed by Ligplot+ ([Laskowski and Swindells, 2011]). Ligands are shown as thick sticks with carbons in green, proteins as thin sticks with carbons in gray, hydrogen bonds as yellow dashed lines, and amino acids involved in van der Waals contacts are highlighted as transparent surfaces. The inhibitor forms covalent bonds with S201 and H254 via the chloromethylketone warhead, and it hydrogen bonds with the backbone of residues 196–198 from the L3 loop and residues 248–250 from the L5 loop. van der Waals contacts with the inhibitor are formed by the residues from the L3 loop of GlpG, by S193 and Q189 from TMD3, and by F146 and M120 from the L1 loop that pack against the Val side chain of the P4 position of the inhibitor, as observed previously ([Zoll et al., 2014]). (D) The conformations of peptide inhibitors bound to the active site of GlpG were compared by performing structural alignment of the complexes of VRHAcmk (PDB: 5MT7), RVRHAcmk (PDB: 5MT8), IATAcmk (PDB: 4QO2), and VRMAcho (PDB: 5F5B) in PyMOL ([Schrodinger, 2012]). […] The backbone of the ligands in all complexes has virtually identical conformation with the exception of the distortion of the oxyanion by the chloromethylketone, and the biggest differences are found in the conformation of the P2 side chain, which is not surprising, because almost any side chain can be accommodated in this position ([Zoll et al., 2014]). TEXT PRINTED IN THE PICTURE: (A) AcIATAcmk: IC50 (μM): 213 | (A) AcVATAcmk: IC50 (μM): 450 | (A) AcIAHAcmk: IC50 (μM): 200 | (A) AcIRTAcmk: IC50 (μM): 84 | (A) AcVRHAcmk: IC50 (μM): 27 | (A) AcRVRHAcmk: IC50 (μM): 8
Figure 2 A Screen of Electrophilic Warheads for the Inhibition of Rhomboid Proteases The optimized parent sequence Ac-RVRHA was linked to electrophilic warheads commonly used for targeting serine proteases (reviewed in [Hedstrom, 2002], [Walker and Lynas, 2001]). The apparent IC50 values of the compounds were measured in 0.05% DDM using 10 μM substrate KSp35 ([Ticha et al., 2017]) with 1 hr preincubation. Given are the mean values of 2–3 measurements. […]

T1 sequence (P09391 whole entry): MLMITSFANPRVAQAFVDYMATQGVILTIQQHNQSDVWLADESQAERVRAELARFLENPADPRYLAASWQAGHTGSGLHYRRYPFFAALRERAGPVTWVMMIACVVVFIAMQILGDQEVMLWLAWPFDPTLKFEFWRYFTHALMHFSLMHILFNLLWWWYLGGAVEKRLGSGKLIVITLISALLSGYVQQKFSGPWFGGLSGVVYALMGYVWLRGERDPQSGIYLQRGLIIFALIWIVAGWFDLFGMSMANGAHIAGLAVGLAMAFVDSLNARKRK

Molecule: CC[C@H](C)[C@H](NC(C)=O)C(=O)N[C@@H](C)C(=O)N[C@@H](Cc1c[nH]cn1)C(=O)N[C@@H](C)C(=O)CCl [AcIAHAcmk] (Ac-IAHA-CH2Cl)
- pIC50: 3.70

Molecule: CC[C@H](C)[C@H](NC(C)=O)C(=O)N[C@@H](C)C(=O)N[C@H](C(=O)N[C@@H](C)C(=O)CCl)[C@@H](C)O [AcIATAcmk, reference compound] (Ac-IATA-CH2Cl)
- pIC50: 3.67

Molecule: CC[C@H](C)[C@H](NC(C)=O)C(=O)N[C@@H](CCCNC(=N)N)C(=O)N[C@H](C(=O)N[C@@H](C)C(=O)CCl)[C@@H](C)O [AcIRTAcmk] (Ac-IRTA-CH2Cl)
- pIC50: 4.08

Molecule: CC(=O)N[C@@H](CCCNC(=N)N)C(=O)N[C@H](C(=O)N[C@@H](CCCNC(=N)N)C(=O)N[C@@H](Cc1c[nH]cn1)C(=O)N[C@@H](C)C(=O)CCl)C(C)C [AcRVRHAcmk] (Ac-RVRHA-CH2Cl)
- pIC50: 5.10

Molecule: CC(=O)N[C@H](C(=O)N[C@@H](C)C(=O)N[C@H](C(=O)N[C@@H](C)C(=O)CCl)[C@@H](C)O)C(C)C [AcVATAcmk] (Ac-VATA-CH2Cl)
- pIC50: 3.35

Molecule: CC(=O)N[C@H](C(=O)N[C@@H](CCCNC(=N)N)C(=O)N[C@@H](Cc1c[nH]cn1)C(=O)N[C@@H](C)C(=O)CCl)C(C)C [AcVRHAcmk] (Ac-VRHA-CH2Cl)
- pIC50: 4.57

Molecule: CC(=O)N[C@@H](CCCNC(=N)N)C(=O)N[C@H](C(=O)N[C@@H](CCCNC(=N)N)C(=O)N[C@@H](Cc1c[nH]cn1)C(=O)N[C@@H](C)C(=O)NS(C)(=O)=O)C(C)C [acylsulfonamide, AcRVRHA-acylsulfonamide] (Ac-RVRH-X3)
- pIC50: < 3.00

Molecule: CC(=O)N[C@@H](CCCNC(=N)N)C(=O)N[C@H](C(=O)N[C@@H](CCCNC(=N)N)C(=O)N[C@@H](Cc1c[nH]cn1)C(=O)N[C@@H](C)B(O)O)C(C)C [boronate, AcRVRHA-boronate] (Ac-RVRH-boroAla)
- pIC50: 5.10

Molecule: CC(=O)N[C@H](C(=O)N[C@@H](CCCNC(=N)N)C(=O)N[C@@H](Cc1c[nH]cn1)C(=O)N[C@@H](C)C(=O)C(=O)NCCc1ccccc1)C(C)C [compound 12]
- pIC50: 6.26

Molecule: CC(=O)N[C@@H](CCCNC(=N)N)C(=O)N[C@@H](Cc1c[nH]cn1)C(=O)N[C@@H](C)C(=O)C(=O)NCCc1ccccc1 [compound 13, Ac-RHA-CONH-phenylethyl]
- pIC50: 5.05
- fold decrease in potency compared with the parent compound 9 (ratio of apparent IC50 values): ~20 fold

Molecule: CC(=O)N[C@@H](Cc1c[nH]cn1)C(=O)N[C@@H](C)C(=O)C(=O)NCCc1ccccc1 [compound 14]
- pIC50: ~4.19
- fold decrease in potency compared with the parent compound 9 (ratio of apparent IC50 values): ~150 fold

Molecule: CC(=O)N[C@@H](C)C(=O)C(=O)NCCc1ccccc1 [compound 15, Ac-A-CONH-phenylethyl]
- pIC50: < 3.00
- fold decrease in potency compared with the parent compound 9 (ratio of apparent IC50 values): ~2,250 fold

Molecule: CC(=O)N[C@@H](CCCNC(=N)N)C(=O)N[C@H](C(=O)N[C@@H](CCCNC(=N)N)C(=O)N[C@@H](Cc1c[nH]cn1)C(=O)N[C@@H](C)C(=O)c1nccs1)C(C)C [thiazolylketone, AcRVRHA-thiazolylketone] (Ac-RVRH-X4)
- pIC50: < 3.00

Molecule: CC(=O)N[C@@H](CCCNC(=N)N)C(=O)N[C@H](C(=O)N[C@@H](CCCNC(=N)N)C(=O)N[C@@H](Cc1c[nH]cn1)C(=O)NC(C)C(=O)C(F)(F)F)C(C)C (stereo partly shown) [trifluoromethylketone, AcRVRHA-trifluoromethylketone] (Ac-RVRH[ξA]-CF3)
- pIC50: < 3.00

Molecule: Ac-RVRHA-NH2 [compound 1, AcRVRHA-CONH2]
- pIC50: 3.69
- fold less potent than the peptidyl boronate (ratio of apparent IC50 values): about 25 fold
